The values below come from PMC4869175, “Evidence that phytochrome functions as a protein kinase in plant light signalling” (Nature Communications, 2016).

B1: Avena sativa phytochrome A, full-length wild type (natural protein, UniProt P06593 1-1129, looked up)
chain: MSSSRPASSSSSRNRQSSQARVLAQTTLDAELNAEYEESGDSFDYSKLVEAQRDGPPVQQGRSEKVIAYLQHIQKGKLIQTFGCLLALDEKSFNVIAFSENAPEMLTTVSHAVPSVDDPPRLGIGTNVRSLFSDQGATALHKALGFADVSLLNPILVQCKTSGKPFYAIVHRATGCLVVDFEPVKPTEFPATAAGALQSYKLAAKAISKIQSLPGGSMEVLCNTVVKEVFDLTGYDRVMAYKFHEDDHGEVFSEITKPGLEPYLGLHYPATDIPQAARLLFMKNKVRMICDCRARSIKVIEAEALPFDISLCGSALRAPHSCHLQYMENMNSIASLVMAVVVNENEEDDEAESEQPAQQQKKKKLWGLLVCHHESPRYVPFPLRYACEFLAQVFAVHVNREFELEKQLREKNILKMQTMLSDMLFREASPLTIVSGTPNIMDLVKCDGAALLYGGKVWRLRNAPTESQIHDIAFWLSDVHRDSTGLSTDSLHDAGYPGAAALGDMICGMAVAKINSKDILFWFRSHTAAEIRWGGAKNDPSDMDDSRRMHPRLSFKAFLEVVKMKSLPWSDYEMDAIHSLQLILRGTLNDASKPKREASLDNQIGDLKLDGLAELQAVTSEMVRLMETATVPILAVDGNGLVNGWNQKAAELTGLRVDDAIGRHILTLVEDSSVPVVQRMLYLALQGKEEKEVRFEVKTHGPKRDDGPVILVVNACASRDLHDHVVGVCFVAQDMTVHKLVMDKFTRVEGDYKAIIHNPNPLIPPIFGADEFGWCSEWNAAMTKLTGWNRDEVLDKMLLGEVFDSSNASCPLKNRDAFVSLCVLINSALAGEETEKAPFGFFDRSGKYIECLLSANRKENEGGLITGVFCFIHVASHELQHALQVQQASEQTSLKRLKAFSYMRHAINNPLSGMLYSRKALKNTDLNEEQMKQIHVGDNCHHQINKILADLDQDSITEKSSCLDLEMAEFLLQDVVVAAVSQVLITCQGKGIRISCNLPERFMKQSVYGDGVRLQQILSDFLFISVKFSPVGGSVEISSKLTKNSIGENLHLIDLELRIKHQGLGVPAELMAQMFEEDNKEQSEEGLSLLVSRNLLRLMNGDVRHLREAGVSTFIITAELASAPTAMGQ
modifications: phycocyanobilin chromophore assembled (chromophore-binding site C322)
notes: Avena sativa (oat) phytochrome A, full-length gene AsPHYA; 1129 residues by the printed construct limits (66-1129aa); Used as Pr (far-red irradiated) and Pfr (red irradiated) forms; also called AsphyA; FL-AsphyA; source: phycocyanobilin added in vitro
B2: AsphyA T418D, full length (natural protein, Avena sativa, UniProt P06593 1-1129, looked up)
chain: B1 chain with T418D
modifications: phycocyanobilin chromophore assembled
notes: Avena sativa phytochrome A, full length, with T418D; source: phycocyanobilin added in vitro
B3: GST/strep-fused Arabidopsis PIF4 (natural protein, UniProt Q8W2F3 1-430, looked up)
chain: MEHQGWSFEENYSLSTNRRSIRPQDELVELLWRDGQVVLQSQTHREQTQTQKQDHHEEALRSSTFLEDQETVSWIQYPPDEDPFEPDDFSSHFFSTMDPLQRPTSETVKPKSSPEPPQVMVKPKACPDPPPQVMPPPKFRLTNSSSGIRETEMEQYSVTTVGPSHCGSNPSQNDLDVSMSHDRSKNIEEKLNPNASSSSGGSSGCSFGKDIKEMASGRCITTDRKRKRINHTDESVSLSDAIGNKSNQRSGSNRRSRAAEVHNLSERRRRDRINERMKALQELIPHCSKTDKASILDEAIDYLKSLQLQLQVMWMGSGMAAAAASAPMMFPGVQPQQFIRQIQSPVQLPRFPVMDQSAIQNNPGLVCQNPVQNQIISDRFARYIGGFPHMQAATQMQPMEMLRFSSPAGQQSQQPSSVPTKTTDGSRLDH
notes: Arabidopsis PIF4 (NM_180050); not shown: GST, N-terminal, kept
B4: AsphyA K411L, full length (natural protein, Avena sativa, UniProt P06593 1-1129, looked up)
chain: B1 chain with K411L
modifications: phycocyanobilin chromophore assembled
notes: Avena sativa phytochrome A, full length, with K411L; source: phycocyanobilin added in vitro
B5: AsphyA D422R, full length (natural protein, Avena sativa, UniProt P06593 1-1129, looked up)
chain: B1 chain with D422R
modifications: phycocyanobilin chromophore assembled
notes: Avena sativa phytochrome A, full length, with D422R; source: phycocyanobilin added in vitro

In data set [1] the target is T1, full-length AsphyA (Avena sativa, UniProt P06593).
T1 construct: Full-length phytochrome genes of AsPHYA; made in house; host or cells: Pichia pastoris GS115
T1 sequence (P06593 1-1129): B1 chain
Briefly: Binding parameters of ATP by Scatchard plot using BODIPY-FL-ATP. As to the method:
(§1) To estimate dissociation constant (Kd) and the number of binding sites (n) of ATP in AsphyA proteins, an ATP analogue BODIPY-FL-ATP (BODIPY FL 2′-(or-3′)-O-(N-(2-aminoethyl)urethane) adenosine triphosphate; Molecular Probes) was used. 0.5 μM AsphyA proteins were incubated with increasing concentration of BODIPY-FL-ATP (0.5–5 μM) for 10 min at 30 °C, and free (unbound) ATP analogue was separated from the ATP analogue-protein complex by using Amicon Ultra Centrifugal Filter with MWCO of 10,000 Da for 5 min at 4,000g. The spectrophotometric absorbance was then measured to determine the BODIPY-FL-ATP concentrations within flow-through and the complex solutions by using Shimadzu UV-1800 spectrophotometer. […] The concentrations of BODIPY-FL-ATP were also double-checked by measuring the emission intensity of BODIPY fluorophore at the excitation wavelength of 500 nm and emission wavelength of 515 nm. The fluorescence of free BODIPY-FL-ATP in the absence of any protein component was used as a linear standard curve. The Kd and n values were then calculated by a Scatchard plot of r/[BODIPY-FL-ATP]free versus r, where r is the molar ratio of [BODIPY-FL-ATP]bound to [AsphyA]total.
(§2) Supplementary Figure 12. Determination of binding parameters of ATP in AsphyA proteins. The number of binding sites (n) and dissociation constant (Kd) of ATP in AsphyA proteins were determined by Scatchard plots using an ATP analogue, BODIPY-FL-ATP (BODIPY® FL 2′-(or-3′)-O-(N-(2-aminoethyl)urethane) adenosine triphosphate). The n and Kd values were calculated from the slopes (-1/Kd) and x-axis intercepts (n) of the Scatchard plot of r/[BODIPY-FL-ATP]free versus r, where r was the molar ratio of [BODIPY-FL-ATP]bound to [AsphyA]total. The n values of full-length (FL) AsphyA and photosensory core (66-610) were both calculated at around one per polypeptide, and the Kd values were calculated at approximately 0.87 × 10^-6 M for FL-AsphyA, 0.72 × 10^-6 M for […]
(§3) level, possibly due to too low ATP binding.
(§4) (1 picture or pasted object on this page, not shown here)

The target of data set [2] is T2, T418D AsphyA mutant (Avena sativa, UniProt P06593, T418D).
T2 construct: After preparing purified full-length AsphyA mutants; made in house; host or cells: Pichia pastoris GS115
The data set is described as above. As to the method: as §1, §2, §3, §4

The target in data set [3] is T3, photosensory core of AsphyA (66-610) (Avena sativa, UniProt P06593).
T3 construct: the PAS-GAF-PHY photosensory core (66–610aa) were also cloned into pPIC3.5K; made in house; host or cells: Pichia pastoris GS115
T3 sequence (P06593 66-610): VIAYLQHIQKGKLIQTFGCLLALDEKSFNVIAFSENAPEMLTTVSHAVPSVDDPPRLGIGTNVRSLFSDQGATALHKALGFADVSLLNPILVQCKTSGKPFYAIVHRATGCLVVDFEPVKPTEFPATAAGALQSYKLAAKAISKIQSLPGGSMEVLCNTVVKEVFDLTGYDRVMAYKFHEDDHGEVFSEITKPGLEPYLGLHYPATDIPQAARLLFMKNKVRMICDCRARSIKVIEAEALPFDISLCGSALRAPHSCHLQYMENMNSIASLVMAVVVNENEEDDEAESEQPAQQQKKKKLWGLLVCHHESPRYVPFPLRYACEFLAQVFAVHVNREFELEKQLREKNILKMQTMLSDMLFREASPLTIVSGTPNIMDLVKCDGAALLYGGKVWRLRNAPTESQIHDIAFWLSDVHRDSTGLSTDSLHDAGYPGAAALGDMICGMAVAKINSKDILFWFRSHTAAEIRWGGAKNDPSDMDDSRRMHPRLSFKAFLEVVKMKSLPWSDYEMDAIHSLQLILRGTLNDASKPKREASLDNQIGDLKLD
The data set is described as above. As to the method: as §1, §2, §3, §4

Data set [4] deals with T4, K411L AsphyA mutant (Avena sativa, UniProt P06593, K411L).
T4 construct: After preparing purified full-length AsphyA mutants; made in house; host or cells: Pichia pastoris GS115
Described as above. As to the method: as §1, §2, §3, §4

In data set [5] the target is T5, D422R AsphyA mutant (Avena sativa, UniProt P06593, D422R).
T5 construct: After preparing purified full-length AsphyA mutants; made in house; host or cells: Pichia pastoris GS115
The data set is described as above. Conditions: Scatchard plot with BODIPY-FL-ATP; result in words. As to the method:
as §1, §2, §3, §4

Data set [6] deals with the molecule itself. Put plainly: SEC; size-exclusion chromatography of purified full-length AsphyA proteins; molecular masses estimated.
For data set [7], the target named is B1. Briefly: pull-down; GST/strep-fused interacting protein (1.0 μg) held on glutathione resin, phytochrome (1.0 μg) in solution, Pr and Pfr forms both tested; 60 min at 4 °C in pull-down buffer (100 mM Tris-HCl pH 7.8, 1 mM EDTA, 150 mM NaCl, 100 μg/ml BSA); western blot with oat22 and anti-GST. Conditions: both partners purified.
The mark [8] stands for this setting: Scatchard plot with BODIPY-FL-ATP.
The mark [9] stands for this setting: Scatchard plot, 0.5 μM protein, BODIPY-FL-ATP 0.5–5 μM, 10 min at 30 °C, read-out: dissociation constant (Kd) of ATP.

Residue numbers refer to the chain shown, from its start. Numbers in names are those of the source.

T2 sequence (P06593 whole entry T418D): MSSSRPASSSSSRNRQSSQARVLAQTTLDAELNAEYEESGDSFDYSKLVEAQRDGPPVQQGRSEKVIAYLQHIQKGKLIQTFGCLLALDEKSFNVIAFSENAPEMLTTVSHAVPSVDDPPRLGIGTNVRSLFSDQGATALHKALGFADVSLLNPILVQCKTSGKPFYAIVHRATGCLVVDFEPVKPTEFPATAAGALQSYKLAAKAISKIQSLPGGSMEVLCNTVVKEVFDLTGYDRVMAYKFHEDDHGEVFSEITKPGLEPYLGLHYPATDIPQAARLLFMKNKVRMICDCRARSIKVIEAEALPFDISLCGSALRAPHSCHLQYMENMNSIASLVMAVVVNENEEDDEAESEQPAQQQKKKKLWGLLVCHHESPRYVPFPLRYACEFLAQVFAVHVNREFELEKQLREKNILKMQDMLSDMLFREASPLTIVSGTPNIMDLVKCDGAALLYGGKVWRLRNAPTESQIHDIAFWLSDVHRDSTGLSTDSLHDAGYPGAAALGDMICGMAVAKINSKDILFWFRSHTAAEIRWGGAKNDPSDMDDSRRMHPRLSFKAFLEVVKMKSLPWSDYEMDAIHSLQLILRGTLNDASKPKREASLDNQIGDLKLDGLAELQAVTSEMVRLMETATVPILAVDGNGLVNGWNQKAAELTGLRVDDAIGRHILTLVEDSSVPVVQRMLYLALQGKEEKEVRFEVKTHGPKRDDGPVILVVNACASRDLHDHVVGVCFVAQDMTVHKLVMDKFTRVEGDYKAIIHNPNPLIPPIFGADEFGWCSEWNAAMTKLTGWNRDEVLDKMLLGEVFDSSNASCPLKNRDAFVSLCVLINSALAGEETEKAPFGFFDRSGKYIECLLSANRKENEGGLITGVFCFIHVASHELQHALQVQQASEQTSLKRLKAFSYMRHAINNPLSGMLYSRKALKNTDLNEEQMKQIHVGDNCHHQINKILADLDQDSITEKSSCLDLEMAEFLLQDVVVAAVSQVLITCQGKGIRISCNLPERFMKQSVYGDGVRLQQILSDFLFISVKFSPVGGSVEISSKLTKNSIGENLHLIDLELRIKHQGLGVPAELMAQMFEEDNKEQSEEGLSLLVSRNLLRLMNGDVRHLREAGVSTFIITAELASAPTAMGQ
T5 sequence (P06593 whole entry D422R): as the sequence (P06593 whole entry T418D) above, with D418T, D422R counted along it
T4 sequence (P06593 whole entry K411L): as the sequence (P06593 whole entry T418D) above, with K411L, D418T counted along it

Turning to `CC1=CC(C)=[N+]2C1=Cc1ccc(CCC(=O)NCCNC(=O)O[C@H]3[C@@H](O)[C@H](n4cnc5c(N)ncnc54)O[C@@H]3COP(=O)(O)OP(=O)(O)OP(=O)(O)O)n1[B-]2(F)F` [BODIPY-FL-ATP, BODIPY FL 2′-(or-3′)-O-(N-(2-aminoethyl)urethane) adenosine triphosphate], the “number of binding sites (n) of ATP” value in data set [1] (setting [8]) and in data set [3] (setting [8]) was “approximately one” throughout. Besides, the Kd (commonly a measure of binding affinity in units of concentration) in data set [1] (setting [9]) is about 870 nM; in data set [2] it was about 4760 nM; in data set [3] (setting [9]), 720 nM; in data set [4], about 1320 nM. Besides, in data set [5], the “dissociation constant (Kd) of ATP” value was “unable to obtain the Kd value”.

As to B1, the binding result in data set [6] is listed as “binds”.

As for B2, the stoichiometry N (in general, a count of units in the complex or per binding partner) in data set [6] is 2.

Regarding B3, the binding result in data set [7] is recorded as “binds”.

With B4, in data set [6], the “stoichiometry N” value is 2.

In the case of B5, in data set [6], the “stoichiometry N” value was 2.
